From the CheMixHub viscosity set
± gives the uncertainty stated by the source.

Experiment: xn = mol fraction of the nth substance listed

CCN(CC)CC + CCCCCCCC
viscosity [mPa·s], 101.33 kPa
Settings	x1 = 0.1983	x1 = 0.4032	x1 = 0.5055	x1 = 0.6044	x1 = 0.7987	x1 = 0.9028
303.15 K	0.4507 ± 0.0055	0.4233 ± 0.0053	0.411 ± 0.0053	0.3999 ± 0.0052	0.3795 ± 0.0051	0.3694 ± 0.0051
313.15 K	0.3913 ± 0.0052	0.3701 ± 0.0051	0.3605 ± 0.005	0.3523 ± 0.005	0.3379 ± 0.005	0.331 ± 0.0049

CCN(CC)CC + Cc1ccc(C)cc1
303.15 K, 101 kPa
Settings	viscosity [mPa·s]
x1 = 0.0103	0.5611 ± 0.0049
x1 = 0.02055	0.5576 ± 0.0048
x1 = 0.03043	0.5525 ± 0.0048
x1 = 0.04261	0.5488 ± 0.0048
x1 = 0.05408	0.5433 ± 0.0048
x1 = 0.06646	0.5381 ± 0.0047
x1 = 0.07602	0.5342 ± 0.0047
x1 = 0.08463	0.5307 ± 0.0047
x1 = 0.09589	0.5253 ± 0.0047
x1 = 0.1075	0.5207 ± 0.0046

ClC(Cl)(Cl)Cl + CCC(C)O
viscosity [mPa·s], 101 kPa
Settings	298.15 K	308.15 K	318.15 K
x2 = 0.0864	0.89 ± 0.009	0.779 ± 0.008	0.679 ± 0.007
x2 = 0.1674	0.934 ± 0.009	0.807 ± 0.008	0.686 ± 0.007
x2 = 0.2076	0.91 ± 0.009	0.801 ± 0.008	0.695 ± 0.007
x2 = 0.2585	0.94 ± 0.009	0.819 ± 0.008	0.701 ± 0.007
x2 = 0.3003	0.954 ± 0.009	0.825 ± 0.008	0.713 ± 0.007
x2 = 0.3969	1.053 ± 0.01	0.862 ± 0.008	0.731 ± 0.007
x2 = 0.5009	1.163 ± 0.011	0.938 ± 0.009	0.783 ± 0.008
x2 = 0.5957	1.335 ± 0.013	1.039 ± 0.01	0.86 ± 0.008
x2 = 0.6933	1.545 ± 0.015	1.183 ± 0.011	0.942 ± 0.009
x2 = 0.7903	1.863 ± 0.018	1.378 ± 0.013	1.087 ± 0.011
x2 = 0.9054	2.429 ± 0.023	1.746 ± 0.017	1.287 ± 0.012

NNC(=O)c1ccncc1 + O
viscosity [mPa·s]
Settings	298.15 K	303.15 K	308.15 K	313.15 K
100 kPa, x1 = 0.00051	–	–	0.7216 ± 0.12	–
100 kPa, x1 = 0.000801	–	0.8033 ± 0.12	0.724 ± 0.12	–
100 kPa, x1 = 0.00109	0.9009 ± 0.12	0.8061 ± 0.12	0.7263 ± 0.12	0.6588 ± 0.12
100 kPa, x1 = 0.00153	0.9061 ± 0.12	0.8104 ± 0.12	0.7299 ± 0.12	0.6617 ± 0.12
101 kPa, x1 = 0.003	0.9182 ± 0.019	–	0.7383 ± 0.016	–

CCN(CC)CC + CCCCOCCO
viscosity [mPa·s], 100 kPa
Settings	298.15 K	303.15 K	308.15 K
x2 = 0.0506	0.431 ± 0.1	0.407 ± 0.1	0.383 ± 0.1
x2 = 0.1002	0.51 ± 0.1	0.474 ± 0.1	0.447 ± 0.1
x2 = 0.1499	0.598 ± 0.1	0.553 ± 0.1	0.518 ± 0.1
x2 = 0.2	0.689 ± 0.1	0.632 ± 0.1	0.594 ± 0.1
x2 = 0.3001	0.875 ± 0.1	0.802 ± 0.1	0.75 ± 0.1
x2 = 0.3999	1.097 ± 0.1	0.99 ± 0.1	0.922 ± 0.1
x2 = 0.5001	1.35 ± 0.1	1.212 ± 0.1	1.122 ± 0.1
x2 = 0.6	1.632 ± 0.1	1.457 ± 0.1	1.342 ± 0.1
x2 = 0.6996	1.946 ± 0.1	1.714 ± 0.1	1.576 ± 0.1
x2 = 0.7994	2.254 ± 0.1	1.979 ± 0.1	1.809 ± 0.1
x2 = 0.8995	2.578 ± 0.1	2.264 ± 0.1	2.058 ± 0.1
x2 = 0.9498	2.724 ± 0.1	2.392 ± 0.1	2.174 ± 0.1

ClC(Cl)(Cl)Cl + CC(C)=O
viscosity [mPa·s], 101 kPa
Settings	x1 = 0.0993	x1 = 0.2003	x1 = 0.2968	x1 = 0.4207	x1 = 0.5193	x1 = 0.61	x1 = 0.7052	x1 = 0.8049	x1 = 0.9143
293.15 K	0.3621 ± 0.0097	0.4068 ± 0.011	0.4555 ± 0.012	0.5227 ± 0.014	0.5813 ± 0.015	0.6398 ± 0.017	0.7073 ± 0.019	0.7845 ± 0.021	0.8843 ± 0.023
298.15 K	0.3447 ± 0.0093	0.3859 ± 0.01	0.4311 ± 0.011	0.4933 ± 0.013	0.5473 ± 0.015	0.6015 ± 0.016	0.6632 ± 0.018	0.7338 ± 0.019	0.8251 ± 0.022
303.15 K	0.3284 ± 0.0089	0.3665 ± 0.0099	0.409 ± 0.011	0.466 ± 0.012	0.5196 ± 0.014	0.5667 ± 0.015	0.6234 ± 0.017	0.6889 ± 0.018	0.7757 ± 0.021
313.15 K	0.3001 ± 0.0081	0.3321 ± 0.009	0.3699 ± 0.0099	0.4185 ± 0.011	0.4649 ± 0.012	0.506 ± 0.013	0.5538 ± 0.015	0.6106 ± 0.016	0.6817 ± 0.018

CCN(CC)CC + OCCO
101 kPa
Settings	viscosity [mPa·s]
296.95 K, x1 = 0.143	16.28 ± 0.14
297.85 K, x1 = 0.268	9.85 ± 0.14
297.85 K, x1 = 0.514	2.7 ± 0.06
297.85 K, x1 = 0.789	0.704 ± 0.021
301.85 K, x1 = 0.143	13.5 ± 0.14
302.85 K, x1 = 0.268	7.9 ± 0.09
302.85 K, x1 = 0.789	0.644 ± 0.007
306.45 K, x1 = 0.143	11.7 ± 0.11
307.85 K, x1 = 0.268	6.79 ± 0.07
307.85 K, x1 = 0.514	2.05 ± 0.02
307.85 K, x1 = 0.789	0.589 ± 0.006
312.95 K, x1 = 0.268	5.7 ± 0.06
312.95 K, x1 = 0.514	1.79 ± 0.02
312.95 K, x1 = 0.789	0.543 ± 0.006
313.45 K, x1 = 0.143	9.46 ± 0.09
317.75 K, x1 = 0.268	4.91 ± 0.05
317.75 K, x1 = 0.514	1.61 ± 0.02
317.75 K, x1 = 0.789	0.514 ± 0.005
320.45 K, x1 = 0.143	7.64 ± 0.09
322.75 K, x1 = 0.268	4.18 ± 0.04
322.75 K, x1 = 0.514	1.45 ± 0.01

ClC(Cl)(Cl)Cl + CN(C)C=O
viscosity [mPa·s], 101.3 kPa
Settings	x1 = 0.1208	x1 = 0.129	x1 = 0.2535	x1 = 0.2556	x1 = 0.4423	x1 = 0.4437	x1 = 0.5937	x1 = 0.595	x1 = 0.8073	x1 = 0.8235
298 K	–	0.879 ± 0.011	–	0.918 ± 0.011	–	0.958 ± 0.011	–	0.966 ± 0.011	0.949 ± 0.01	–
318 K	0.6789 ± 0.025	–	0.7118 ± 0.026	–	0.745 ± 0.027	–	0.7608 ± 0.028	–	–	0.7506 ± 0.027

ClC(Cl)(Cl)Cl + CCCCO
Settings	viscosity [mPa·s]
298.15 K, 101 kPa, x2 = 0.0326	0.903 ± 0.009
298.15 K, 101 kPa, x2 = 0.0846	0.92 ± 0.009
298.15 K, 101 kPa, x2 = 0.1	0.918 ± 0.024
298.15 K, 101 kPa, x2 = 0.19	0.975 ± 0.026
298.15 K, 101 kPa, x2 = 0.2668	1.058 ± 0.01
298.15 K, 101 kPa, x2 = 0.27	1.046 ± 0.027
298.15 K, 101 kPa, x2 = 0.34	1.135 ± 0.03
298.15 K, 101 kPa, x2 = 0.425	1.293 ± 0.012
298.15 K, 101 kPa, x2 = 0.4916	1.42 ± 0.013
298.15 K, 101 kPa, x2 = 0.58	1.56 ± 0.041
298.15 K, 101 kPa, x2 = 0.629	1.778 ± 0.016
298.15 K, 101 kPa, x2 = 0.67	1.794 ± 0.047
298.15 K, 101 kPa, x2 = 0.6978	1.88 ± 0.017
298.15 K, 101 kPa, x2 = 0.76	1.979 ± 0.052
298.15 K, 101 kPa, x2 = 0.7789	2.078 ± 0.019
298.15 K, 101 kPa, x2 = 0.836	2.291 ± 0.021
298.15 K, 101 kPa, x2 = 0.89	2.325 ± 0.061
298.15 K, 101.32 kPa, x2 = 0.09917	0.919 ± 0.0007
298.15 K, 101.32 kPa, x2 = 0.1956	0.972 ± 0.0007
298.15 K, 101.32 kPa, x2 = 0.3011	1.074 ± 0.0007
298.15 K, 101.32 kPa, x2 = 0.3746	1.163 ± 0.0008
298.15 K, 101.32 kPa, x2 = 0.5434	1.464 ± 0.0008
298.15 K, 101.32 kPa, x2 = 0.5847	1.552 ± 0.0008
298.15 K, 101.32 kPa, x2 = 0.687	1.806 ± 0.0008
298.15 K, 101.32 kPa, x2 = 0.7888	2.065 ± 0.0009
298.15 K, 101.32 kPa, x2 = 0.8923	2.329 ± 0.0009
303.15 K, 101 kPa, x2 = 0.0559	0.8424 ± 0.0068
303.15 K, 101 kPa, x2 = 0.057	0.8423 ± 0.0068
303.15 K, 101 kPa, x2 = 0.1084	0.8543 ± 0.0069
303.15 K, 101 kPa, x2 = 0.1137	0.856 ± 0.0069
303.15 K, 101 kPa, x2 = 0.1851	0.8882 ± 0.0071
303.15 K, 101 kPa, x2 = 0.1887	0.8907 ± 0.0071
303.15 K, 101 kPa, x2 = 0.2871	0.9679 ± 0.0077
303.15 K, 101 kPa, x2 = 0.3823	1.076 ± 0.0085
303.15 K, 101 kPa, x2 = 0.4772	1.215 ± 0.0095
303.15 K, 101 kPa, x2 = 0.5086	1.268 ± 0.0099
303.15 K, 101 kPa, x2 = 0.6468	1.527 ± 0.012
303.15 K, 101 kPa, x2 = 0.6792	1.593 ± 0.012
303.15 K, 101 kPa, x2 = 0.7591	1.764 ± 0.013
303.15 K, 101 kPa, x2 = 0.8416	1.943 ± 0.015
303.15 K, 101 kPa, x2 = 0.893	2.054 ± 0.016
303.15 K, 101 kPa, x2 = 0.9516	2.176 ± 0.017
303.15 K, 101 kPa, x2 = 0.9563	2.186 ± 0.017
303.15 K, 101.3 kPa, x1 = 0.7915	1.005 ± 0.05
308.15 K, 101 kPa, x2 = 0.0846	0.801 ± 0.008
308.15 K, 101 kPa, x2 = 0.2668	0.902 ± 0.009
308.15 K, 101 kPa, x2 = 0.629	1.372 ± 0.013
308.15 K, 101 kPa, x2 = 0.6978	1.487 ± 0.014
308.15 K, 101 kPa, x2 = 0.7789	1.647 ± 0.015
308.15 K, 101 kPa, x2 = 0.836	1.76 ± 0.016
318.15 K, 101 kPa, x2 = 0.0326	0.684 ± 0.007
318.15 K, 101 kPa, x2 = 0.0846	0.692 ± 0.007
318.15 K, 101 kPa, x2 = 0.2668	0.773 ± 0.008
318.15 K, 101 kPa, x2 = 0.425	0.883 ± 0.009
318.15 K, 101 kPa, x2 = 0.4916	0.95 ± 0.009
318.15 K, 101 kPa, x2 = 0.629	1.116 ± 0.011
318.15 K, 101 kPa, x2 = 0.6978	1.189 ± 0.011
318.15 K, 101 kPa, x2 = 0.7789	1.313 ± 0.012
318.15 K, 101 kPa, x2 = 0.836	1.416 ± 0.013
